This note sets out measurements from the supplement of paper PMC4862054.

Common to all, as to assay: drug sensitivity score (DSS), CellTox Green (DSS (AUC-based score)); higher = stronger drug effect (viability inhibition or cytotoxicity); extreme values may be limits of the assay
Details in all cases: incubation time: 72 h

One experiment deals with MFM-223. The essentials: (§1)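 Breast cancer cell lines were seeded in 20 µl suspension into 384-well plates already holding compound and incubated for 72 h. Each compound was tested at 5 concentrations in 10-fold steps across its own 10,000-fold range. Plates were normalised to 0.1 % DMSO and a positive kill control after CellTox Green and then CellTiter-Glo readings. The area under the fitted dose-response curve served as the basis for the drug sensitivity score.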

A further experiment relates to CAL-148. The essentials: as §1
The subject of a further experiment is Hs578T. The essentials:
as §1

The test system of a further experiment is MDA-MB-436. In a few lines: as §1
A further experiment relates to HCC1599. In a few lines: as §1
Another experiment has as its system MDA-MB-453. In a few lines: as §1
For a further experiment, the system named is BT-474. The essentials: as §1
A further experiment has as its system HCC1937. The essentials:
as §1

The next experiment has as its system CAL-85-1. In a few lines: as §1
Another experiment has as its system HDQ-P1. In a few lines:
as §1

A further experiment relates to MDA-MB-468. In a few lines:
as §1

For another experiment, the system named is CAL-51. In a few lines:
as §1

The next experiment deals with DU-4475. The essentials:
as §1

A further experiment deals with MCF-10A. In a few lines:
as §1

The test system of a further experiment is HCC1143. The essentials:
as §1

The subject of the next experiment is CAL-120. In a few lines:
as §1

The next experiment deals with MDA-MB-231. In a few lines:
as §1

Another experiment deals with BT-549. The essentials:
as §1

Take `CCn1c(C(=O)N(C2CC2)C2CC2)cc2c3c(ncn3C)c(Nc3cc(C)n(C)n3)nc21`: the drug sensitivity score in the experiment on MFM-223, with CAL-148, with Hs578T, with MDA-MB-436, in the experiment on HCC1599 and in the experiment on MDA-MB-453 was 0 in each case. Further, the drug sensitivity score with BT-474 worked out at 0; in the experiment with HCC1937, 3.5; in the experiment on CAL-85-1, 0; in the experiment on HDQ-P1 it was 0; in the experiment with MDA-MB-468, 1.81; in the experiment with CAL-51, 0. In addition, the drug sensitivity score in the experiment with DU-4475 was determined as 0; in the experiment with MCF-10A, 0; in the experiment on HCC1143, 1.62; with CAL-120 it was 0; in the experiment with MDA-MB-231, 0.
In the case of `COc1ccc(S(=O)(=O)Nc2cccnc2Nc2ccc(O)cc2)cc1` [ABT-751], the drug sensitivity score in the experiment with MFM-223 is 4.05; with CAL-148, 0; in the experiment on Hs578T, 7.06; with MDA-MB-436 it was 9.27; with HCC1599 it was 0; in the experiment with MDA-MB-453, 0. The drug sensitivity score in the experiment on BT-474 came to 0; in the experiment with HCC1937, 0; in the experiment on CAL-85-1 it was 12; in the experiment with BT-549, 10.2; in the experiment on HDQ-P1, 0; with MDA-MB-468, 4.39. Further, the drug sensitivity score was determined as 1.79 in the experiment on CAL-51; 0 with DU-4475; 4 in the experiment on MCF-10A; 0 in the experiment on HCC1143; 0.145 in the experiment with CAL-120; 8.51 in the experiment on MDA-MB-231.
Take `CN[C@@H](C)C(=O)N[C@H]1CN(C(=O)CC(C)C)CC[C@H]2CC[C@@H](C(=O)NC(c3ccccc3)c3ccccc3)N2C1=O` [AT-406]: the drug sensitivity score in the experiment on MFM-223 was 0; in the experiment with Hs578T, 0; in the experiment with MDA-MB-436 it was 0; in the experiment on HCC1599 it was 0; with MDA-MB-453, 0; in the experiment with BT-474 it was 0.17. Further, the drug sensitivity score with HCC1937 came to 0; with CAL-85-1, 22.9; in the experiment with BT-549 it was 8.86; with HDQ-P1, 4.26; in the experiment on MDA-MB-468 it was 0; in the experiment with CAL-51, 0. Also, the drug sensitivity score in the experiment with DU-4475 came to 0; in the experiment with MCF-10A it was 0; in the experiment on HCC1143 it was 0; in the experiment on MDA-MB-231, 25.5.
For `Cc1cc(Nc2nc(N[C@@H](C)c3ncc(F)cn3)ncc2Cl)[nH]n1` [AZD1480], the drug sensitivity score came out at 1.25 in the experiment with MFM-223; 0 in the experiment with CAL-148; 1.75 with Hs578T; 0 in the experiment with MDA-MB-436; 0 in the experiment with HCC1599; 0 with MDA-MB-453. Besides, the drug sensitivity score in the experiment with BT-474 was 0; in the experiment on HCC1937 it was 0; in the experiment with CAL-85-1 it was 0; in the experiment with BT-549, 0.354; in the experiment on HDQ-P1 it was 0; in the experiment with MDA-MB-468 it was 0. The drug sensitivity score in the experiment with CAL-51, with DU-4475, with MCF-10A, with HCC1143, in the experiment on CAL-120 and in the experiment with MDA-MB-231 was 0 throughout.
For the compound `CC(O)(CS(=O)(=O)c1ccc(F)cc1)C(=O)Nc1ccc(C#N)c(C(F)(F)F)c1` (stereo unspecified) [Bicalutamide], the drug sensitivity score with MFM-223, in the experiment on CAL-148, in the experiment with Hs578T, in the experiment with MDA-MB-436, with HCC1599 and with MDA-MB-453 was 0 throughout. Also, the drug sensitivity score with BT-474, with HCC1937, in the experiment on CAL-85-1, in the experiment with BT-549, in the experiment on HDQ-P1 and with CAL-51 was 0 each time. Further, the drug sensitivity score in the experiment on DU-4475, with MCF-10A, in the experiment on HCC1143, in the experiment with CAL-120 and with MDA-MB-231 was 0 each time.
As to `CCNC(=O)CCC/C=C\C[C@@H]1[C@@H](/C=C/[C@@H](O)CCc2ccccc2)[C@H](O)C[C@@H]1O` [Bimatoprost], the drug sensitivity score in the experiment with MFM-223 was 0; in the experiment with CAL-148, 0; in the experiment on Hs578T, 2.06; with MDA-MB-436, 0; in the experiment on HCC1599, 0; with MDA-MB-453, 0. Besides, the drug sensitivity score in the experiment with BT-474, in the experiment on HCC1937, with CAL-85-1, with BT-549, with CAL-51 and with DU-4475 was 0 in each case. The drug sensitivity score in the experiment with MCF-10A, with HCC1143, in the experiment with CAL-120 and with MDA-MB-231 was 0 throughout.
For `Cn1cc(C2=C(c3cn(C4CCN(Cc5ccccn5)CC4)c4ccccc34)C(=O)NC2=O)c2ccccc21` [Enzastaurin], the drug sensitivity score with MFM-223, in the experiment with CAL-148, with MDA-MB-436, in the experiment on HCC1599, in the experiment on MDA-MB-453 and in the experiment on BT-474 was 0 in each case. The drug sensitivity score with HCC1937, in the experiment on CAL-85-1, in the experiment with BT-549, in the experiment with HDQ-P1, in the experiment with MDA-MB-468 and in the experiment with CAL-51 was 0 in each case. The drug sensitivity score in the experiment on DU-4475, in the experiment with MCF-10A, in the experiment on HCC1143, with CAL-120 and in the experiment with MDA-MB-231 was 0 each time.
For `CC(C)C[C@H](NC(=O)[C@@H](COC(C)(C)C)NC(=O)[C@H](Cc1ccc(O)cc1)NC(=O)[C@H](CO)NC(=O)[C@H](Cc1c[nH]c2ccccc12)NC(=O)[C@H](Cc1cnc[nH]1)NC(=O)[C@@H]1CCC(=O)N1)C(=O)N[C@@H](CCCNC(=N)N)C(=O)N1CCC[C@H]1C(=O)NNC(N)=O` [Goserelin], the drug sensitivity score in the experiment on CAL-148 amounted to 0; in the experiment on Hs578T, 1.59; with MDA-MB-436, 0; in the experiment with HCC1599, 0; with MDA-MB-453, 0; in the experiment on BT-474, 0.105. The drug sensitivity score turned out to be 0 in the experiment with HCC1937; 0 in the experiment with CAL-85-1; 0 with BT-549; 0.917 in the experiment on HDQ-P1; 0 with MDA-MB-468; 0 in the experiment on CAL-51. The drug sensitivity score in the experiment on DU-4475, in the experiment with MCF-10A, with HCC1143, with CAL-120 and with MDA-MB-231 was 0 throughout.
